# Tests used:
# [1] = target: T1, Prothrombin (FII) (Homo sapiens, UniProt P00734); experiment: surface plasmon resonance, lipid in nanodiscs, steady state; assay type: binding; conditions: read-out: Kd (μM) / 40% PS 60% PC
# T1 construct: gene F2; zymogen prothrombin; source and preparation only in supplement
# Description: surface plasmon resonance, lipid in nanodiscs, steady state on Prothrombin (FII)
# [2] = target: T2, Factor X (FX) (Homo sapiens, UniProt P00742); experiment: as above; assay type: binding; conditions: read-out: Kd (μM) / 40% PS 60% PC
# T2 construct: gene F10; zymogen factor X, two-chain; source and preparation only in supplement; with Coagulation factor X (factor X heavy chain)
# T2 sequence (P00742 41-179): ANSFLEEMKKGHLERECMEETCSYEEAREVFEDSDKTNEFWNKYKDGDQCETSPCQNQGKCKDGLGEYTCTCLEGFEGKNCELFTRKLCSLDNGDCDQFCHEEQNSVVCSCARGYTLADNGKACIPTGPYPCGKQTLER
# T2 sequence (P00742 183-488): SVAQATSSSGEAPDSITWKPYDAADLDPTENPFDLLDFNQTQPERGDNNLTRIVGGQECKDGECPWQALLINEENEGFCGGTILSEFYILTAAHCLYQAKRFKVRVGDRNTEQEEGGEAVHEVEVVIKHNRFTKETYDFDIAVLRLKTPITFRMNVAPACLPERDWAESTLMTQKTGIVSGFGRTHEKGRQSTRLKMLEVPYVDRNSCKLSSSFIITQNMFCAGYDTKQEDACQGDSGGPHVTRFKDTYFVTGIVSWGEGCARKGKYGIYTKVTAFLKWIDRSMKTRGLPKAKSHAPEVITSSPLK
# Description: surface plasmon resonance, lipid in nanodiscs, steady state on Factor X (FX)
smiles,measurement,setting,value
CCCCCCCC/C=C\CCCCCCCC(=O)O[C@H](COC(=O)CCCCCCCCCCCCCCC)COP(=O)(O)OC[C@H](N)C(=O)O [PS 16:0/18:1(9Z)],Kd,[1],6.23 ± 0.921 µM
same,Kd,[2],1.33 ± 0.191 µM

# From publication PMC10809103, “Phosphatidylthreonine is a procoagulant lipid detected in human blood and elevated in coronary artery disease” (Journal of lipid research, 2023)
